In ChEMBL document CHEMBL5331062, “2,6-Difluorobenzamide derivatives as store-operated calcium channel (SOC) inhibitors” (Eur J Med Chem, 2022):
The source made the active and inactive calls. The calls are words filed in the database; no cut-off is given here.

Columns and labels:
[1] = AUC (0 to infinity) in Sprague-Dawley rat at 20 mg/kg, po measured upto 24 hrs by LC-MS/MS analysis; assay type: ADME, organism-based; set-up: dose 20 mg/kg, time < 24 hrs, route po; settings: in vivo
[2] = Oral bioavailability in Sprague-Dawley rat at 20 mg/kg measured upto 24 hrs by LC-MS/MS analysis; assay type: ADME, organism-based; settings: in vivo
Caco-2 [3] = assay: Antiproliferative activity against human Caco-2 cells assessed as reduction in cell growth incubated for 24 hrs by WST-8 cell proliferation assay; assay type: functional, cell-based
[4] = Volume of distribution at steady state in Sprague-Dawley rat at 2 mg/kg, iv measured upto 24 hrs by LC-MS/MS analysis; assay type: ADME, organism-based; settings: in vivo, read-out: Vdss
[5] = Half life in Sprague-Dawley rat at 2 mg/kg, iv measured upto 24 hrs by LC-MS/MS analysis; assay type: ADME, organism-based; settings: in vivo
[6] = AUC (0 to infinity) in Sprague-Dawley rat at 2 mg/kg, iv measured upto 24 hrs by LC-MS/MS analysis; assay type: ADME, organism-based; set-up: dose 2 mg/kg, time < 24 hrs, route iv; settings: in vivo
[7] = Clearance in Sprague-Dawley rat at 2 mg/kg, iv measured upto 24 hrs by LC-MS/MS analysis; assay type: ADME, organism-based; settings: in vivo
Caco-2 [8] = assay: Inhibition of SOC activity in human Caco-2 cells co-transfected with STIM1-YFP/Orai1-mCherry assessed as reduction in thapsigargin induced STIM1-Orai1 interaction at 1 uM preincubated with thapsigargin for 2 mins followed by compound treatment by calcium influx assay; assay type: cell-based
[9] = Cmax in Sprague-Dawley rat at 20 mg/kg, po measured upto 24 hrs by LC-MS/MS analysis; assay type: ADME, organism-based; set-up: dose 20 mg/kg, time < 24 hrs, route po; settings: in vivo
Caco-2 [10] = assay: Inhibition of SOC activity in human Caco-2 cells co-transfected with STIM1-YFP/Orai1-mCherry assessed as reduction in thapsigargin induced STIM1-Orai1 interaction at 1 uM preincubated with compound for 30 mins followed by thapsigargin induction by time-lapse TIRF-FRET assay; assay type: cell-based
[11] = Tmax in Sprague-Dawley rat at 20 mg/kg, po measured upto 24 hrs by LC-MS/MS analysis; assay type: ADME, organism-based; settings: in vivo
[12] = Half life in Sprague-Dawley rat at 20 mg/kg, po measured upto 24 hrs by LC-MS/MS analysis; assay type: ADME, organism-based; settings: in vivo
Caco-2 [13] = assay: Inhibition of SOC activity in human Caco-2 cells co-transfected with STIM1-YFP/Orai1-mCherry assessed as reduction in thapsigargin induced STIM1-Orai1 interaction at 1 uM preincubated with thapsigargin for 2 mins followed by compound treatment by time-lapse TIRF-FRET assay; assay type: cell-based
Caco-2 [14] = assay: Inhibition of SOC activity in human Caco-2 cells assessed as stabilization of STIM1-EB1 complex by immunoprecipitation-Western blot analysis; assay type: cell-based
Caco-2 [15] = assay: Inhibition of cell migration in human Caco-2 cells assessed as suppression of cell growth at 1 uM measured after 48 hrs by transwell migration assay; assay type: functional, cell-based
Caco-2 [16] = assay: Inhibition of SOC activity in human Caco-2 cells at 1 uM induced by thapsigargin for 5 mins followed by Ca2+ […] addition and measured after 5 mins after compound addition by Ca2+ imaging method; assay type: cell-based
Caco-2 [17] = assay: Inhibition of cell invasion in human Caco-2 cells assessed as suppression of cell growth at 1 uM measured after 48 hrs by crystal violet staining based analysis; assay type: functional
Caco-2 [18] = assay: Inhibition of cell migration in human Caco-2 cells assessed as reduction in cell motility at 1 uM measured after 24 hrs by wound healing assay; assay type: functional, cell-based

Structure (SMILES) | AUC(0-inf) [1] | bioavailability [2] | Activity (Caco-2 [3]) | Vd [4] | half-life [5] | AUC(0-inf) [6] | clearance [7] | inhibition (Caco-2 [8]) | Cmax [9] | inhibition (Caco-2 [10]) | Tmax [11] | half-life [12] | inhibition (Caco-2 [16]) | inhibition (Caco-2 [18]) | further results
COc1ccc(OC)c(-c2ccc(NC(=O)c3ccncc3F)cc2)c1 | 2000 ng·h/mL | 20.6% | inactive | 2.4 L/kg | 5.2 h | 969 ng·h/mL | 34.4 mL/min/kg | Active | 257 ng/mL | Active | 3.3 h | 2.5 h |  |  | 
O=C(Nc1ccc(-c2ccc(F)cc2)cn1)c1c(F)cccc1F | 54000 ng·h/mL | 34% | inactive | 3.9 L/kg | 24 h | 15900 ng·h/mL | 2.4 mL/min/kg | Active | 2160 ng/mL | Active | 6 h | 16 h | Active | Active | inhibition (Caco-2 [13]): Active; inhibition (Caco-2 [14]): Active; inhibition (Caco-2 [15]): Active; inhibition (Caco-2 [17]): Active
O=C(Nc1ccc(-c2cccc(Cl)c2)cn1)c1c(F)cccc1F |  |  |  |  |  |  |  |  |  |  |  |  |  | Active | 
O=C(Nc1ccc(NC(=O)c2c(F)cccc2F)cc1)c1cncc(F)c1 |  |  |  |  |  |  |  |  |  |  |  |  | Active |  | 
O=C(Nc1ccc(-c2ccco2)cn1)c1c(F)cccc1F |  |  |  |  |  |  |  |  |  |  |  |  | Active | Active | 
COc1ccc(-c2ccc(NC(=O)c3c(F)cccc3F)nc2)cc1OC |  |  |  |  |  |  |  |  |  |  |  |  | Active |  | 
